Laboratory results published in the supplement of paper PMC10307832.

What was measured:
Test in all cases: relative viability (nuclei count vs DMSO), 5 days (fraction); higher = more cells survive
[1] = compound: C(C(=O)C(=O)O)Br [Bromopyruvate] + CS(=O)(=O)CCNCc1ccc(-c2ccc3ncnc(Nc4ccc(OCc5cccc(F)c5)c(Cl)c4)c3c2)o1 [Lapatinib] (partner 2 µM)
How it was run: (§1)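 Lung cancer cell lines in 1536-well plates got either a single drug or a fixed anchor-drug dose together with five library-drug doses (not always all listed) in √10 steps, by pin tool, on the day after seeding. Nuclei were counted after 5 days, and relative viability is the treated-to-vehicle ratio of nuclei counts. Values are medians of duplicate plates.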

[2] = compound: C(C(=O)C(=O)O)Br [Bromopyruvate] + O=C(c1cc(Cc2n[nH]c(=O)c3ccccc23)ccc1F)N1CCN(C(=O)C2CC2)CC1 [Olaparib] (partner 8 µM)
How it was run: as §1

[3] = compound: CC(O)(CS(=O)(=O)c1ccc(F)cc1)C(=O)Nc1ccc(C#N)c(C(F)(F)F)c1 [Bicalutamide] + Cc1cc(Nc2cc(N3CCN(C)CC3)nc(Sc3ccc(NC(=O)C4CC4)cc3)n2)n[nH]1 [Tozasertib] (partner 0.1 µM)
How it was run: as §1

[4] = compound: CC(O)(CS(=O)(=O)c1ccc(F)cc1)C(=O)Nc1ccc(C#N)c(C(F)(F)F)c1 [Bicalutamide] + Nc1ncn([C@H]2C[C@H](O)[C@@H](CO)O2)c(=O)n1 [Decitabine] (partner 2 µM)
How it was run: as §1

| Cell Line | relative viability ([1]; first compound 1 µM) | relative viability ([1]; first compound 3.162 µM) | relative viability ([1]; first compound 10 µM) | relative viability ([1]; first compound 31.62 µM) | relative viability ([1]; first compound 100 µM) | relative viability ([2]; first compound 1 µM) | relative viability ([2]; first compound 3.162 µM) | relative viability ([2]; first compound 10 µM) | relative viability ([2]; first compound 31.62 µM) | relative viability ([2]; first compound 100 µM) | relative viability ([3]; first compound 0.08 µM) | relative viability ([3]; first compound 0.253 µM) | relative viability ([3]; first compound 0.8 µM) | relative viability ([3]; first compound 2.53 µM) | relative viability ([4]; first compound 0.08 µM) | relative viability ([4]; first compound 0.253 µM) | relative viability ([4]; first compound 0.8 µM) | relative viability ([4]; first compound 2.53 µM) |
| --- | --- | --- | --- | --- | --- | --- | --- | --- | --- | --- | --- | --- | --- | --- | --- | --- | --- | --- |
| NCI-H1915 | 0.95 | 0.98 | 0.976 | 0.98 | 0.991 | 0.261 | 0.267 | 0.242 | 0.254 | 0.22 | 0.434 | 0.447 | 0.491 | 0.381 | 0.28 | 0.26 | 0.282 | 0.278 |
| NCI-H1944 | 0.826 | 0.903 | 0.932 | 0.7 | 0.869 | 0.395 | 0.432 | 0.429 | 0.419 | 0.402 | 0.246 | 0.232 | 0.256 | 0.257 | 0.441 | 0.433 | 0.428 | 0.462 |
| NCI-H1975 | 0.876 | 1.08 | 1.01 | 0.838 | 0.833 | 0.858 | 0.79 | 1.11 | 0.755 | 0.605 | 0.785 | 0.711 | 0.745 | 0.514 | 0.384 | 0.36 | 0.436 | 0.408 |
| NCI-H1993 | 0.698 | 0.763 | 0.705 | 0.847 | 0.769 | 1.56 | 1 | 0.927 | 1.09 | 1.02 | 0.567 | 0.581 | 0.727 | 0.629 | 0.678 | 0.514 | 0.647 | 0.627 |
| NCI-H2009 | 0.903 | 0.783 | 0.877 | 0.874 | 0.909 | 0.672 | 0.688 | 0.727 | 0.645 | 0.461 | 0.777 | 0.664 | 0.723 | 0.649 | 0.356 | 0.37 | 0.405 | 0.38 |
| NCI-H2023 | 0.803 | 0.922 | 0.743 | 0.877 | 0.793 | 0.452 | 0.455 | 0.465 | 0.544 | 0.551 | 0.448 | 0.376 | 0.306 | 0.249 | 0.267 | 0.227 | 0.248 | 0.233 |
| NCI-H2085 | 0.761 | 0.784 | 0.771 | 0.815 | 0.707 | 0.794 | 0.81 | 0.772 | 0.818 | 0.551 | 0.913 | 0.81 | 0.805 | 0.804 | 0.555 | 0.601 | 0.553 | 0.525 |
| NCI-H2087 | 1.06 | 1.02 | 1.09 | 0.91 | 1.05 | 0.6 | 0.574 | 0.391 | 0.573 | 0.451 | 0.234 | 0.226 | 0.262 | 0.219 | 0.295 | 0.237 | 0.302 | 0.286 |
| NCI-H2126 | 0.752 | 0.78 | 0.764 | 0.787 | 0.751 | 0.912 | 0.879 | 0.988 | 0.939 | 0.923 | 0.939 | 0.811 | 0.944 | 0.75 | 0.572 | 0.537 | 0.582 | 0.528 |
| NCI-H2170 | 0.25 | 0.284 | 0.277 | 0.246 | 0.293 | 0.626 | 0.556 | 0.625 | 0.576 | 0.56 | 0.728 | 0.696 | 0.716 | 0.739 | 0.442 | 0.441 | 0.515 | 0.496 |
| NCI-H2347 | 0.897 | 1.02 | 1.18 | 0.782 | 1.15 | 0.56 | 0.536 | 0.511 | 0.559 | 0.57 | 0.625 | 0.511 | 0.597 | 0.504 | 0.583 | 0.651 | 0.628 | 0.634 |
| NCI-H2405 | 1.13 | 1.12 | 1.13 | 0.965 | 1.14 | 0.879 | 0.859 | 0.916 | – | 0.402 | 0.876 | 0.691 | 0.715 | 0.656 | 0.708 | 0.689 | 0.787 | 0.716 |
| NCI-H3122 | 0.982 | 1.05 | 0.961 | 1.01 | 1.01 | 0.647 | 0.663 | 0.631 | 0.586 | 0.604 | 0.422 | 0.408 | 0.445 | 0.44 | 0.4 | 0.45 | 0.449 | 0.455 |
| PC-3 [JPC-3] | 0.474 | 0.44 | 0.441 | 0.468 | 0.467 | 1.22 | – | 1.11 | – | 1.11 | 0.926 | 0.903 | 0.952 | 0.893 | 0.791 | 0.88 | 0.797 | 0.873 |
| PC-14 | 0.317 | 0.317 | 0.361 | 0.276 | 0.325 | 0.297 | 0.368 | 0.161 | 0.32 | 0.205 | 0.643 | 0.616 | 0.744 | 0.588 | 0.243 | 0.182 | 0.239 | 0.204 |
| RERF-LC-KJ | 0.874 | 0.892 | 0.984 | 0.868 | 0.829 | 0.981 | 0.857 | 0.954 | 0.942 | 0.852 | 0.48 | 0.521 | 0.494 | 0.338 | 0.745 | 0.631 | 0.837 | 0.66 |
| SK-LU-1 | 1.06 | 0.806 | 0.81 | 0.823 | 0.88 | 0.425 | 0.416 | 0.492 | 0.367 | 0.424 | 0.341 | 0.291 | 0.295 | 0.319 | 0.689 | 0.611 | 0.791 | 0.61 |
| SK-MES-1 | 0.417 | 0.466 | 0.488 | 0.432 | 0.465 | 0.802 | 0.738 | 0.85 | 0.626 | 0.554 | 1.08 | 0.853 | 0.867 | 0.66 | 0.497 | 0.374 | 0.405 | 0.416 |
